Target: T1, cold shock domain of LIN28A (residues 16–126) (Homo sapiens, UniProt Q9H9Z2)
T1 construct: cold shock domain construct LIN28 A (residues 16– 126)
T1 sequence (Q9H9Z2 16-126): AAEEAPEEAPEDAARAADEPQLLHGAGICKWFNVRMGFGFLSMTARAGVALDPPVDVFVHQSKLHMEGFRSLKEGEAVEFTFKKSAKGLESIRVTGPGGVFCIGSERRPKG
Test: Thermal shift assay (nano-differential scanning fluorimetry)
Type: binding
Settings: 30 µM protein, compound 100 µM to 0.78 µM
Description: was detected after incubation at room temperature using a TECAN Spark plate reader. Half maximal […]
inhibitory concentrations (IC50) were determined using GraphPad Prism 7.
Compound screening. High throughput screening was performed in low volume 384 well plates […]
(Corning 4514) with 30 µM compound, 40 nM LIN28A, and 2 nM preE-let-7f-1-FAM in FP assay […]
buffer. Compounds were transferred with an ECHO 520 liquid handler and protein and RNA were […]
added with a multidrop dispenser. Protein and RNA were added stepwise with a 30 min incubation […]
period in between. FP was detected after a final incubation of 15 min with an Envision plate reader […]
and fluorescence was measured with a Paradigm plate reader. A reaction without LIN28 served as a […]
negative control and one without compound was used as a positive control. The software Quattro […]
fluorescence was detected with a ChemiDoc M P (Bio-Rad) and 2 minutes of exposure time. […]
126) with and without compound was monitored using a NanoTemper Prometheus NT.48 nano - […]
differential scanning fluorimetry (nanoDSF) instrument at temperatures between 20 °C and 90 °C and a temperature slope of 1 °C per minute with an excitation power of 50–60 %. […] The ratio of intrinsic tryptophan fluorescence at 350 nm and 330 nm was measured and the first derivative was determined to detect the inflection points using the software of the device. […]

O=C(C1=C(O)C(=O)N(c2ccc(O)c(C(=O)O)c2)C1c1ccc(-c2nccs2)cc1)c1ccc(Br)cc1 (stereo not shown) [C902/PH-31]
thermal stability of the CSD of LIN28A: concentration-dependent enhancement

— PMC8201479, “Trisubstituted Pyrrolinones as Small-Molecule Inhibitors Disrupting the Protein–RNA Interaction of LIN28 and Let-7” (ACS Medicinal Chemistry Letters, 2021)
